# Results published in PubChem BioAssay AID652041 (Broad Institute, 2013).
# “And” between values parts separate entries of the source, which are not always exact repeats. Equal entries are not always repeated.
# Tested on: P. falciparum HB3 in RBCs, SYBR Green DNA fluorescence
# Experiment: growth inhibition of P. falciparum HB3, dose response, HB3 strain, red blood cells, SYBR Green, cherry-picked (AID 652041);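 further: parasites exposed to compound for 72 hours before the DNA read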
row,Structure (SMILES),AC35
1,O=C(Nc1cc(Oc2ccc(Cl)cc2)cc([N+](=O)[O-])c1)c1ccco1,2.14 µM
2,CC(C)(C)C(O)C(Cc1ccccc1Cl)n1cncn1 (centres undefined),39.3 µM
3,NC(=O)N=Nc1c2[nH]c3ccccc3nc-2c2ccccc12,21.1 µM
4,Oc1c(CN2CCCC2)cc(COCc2ccccc2)c2cccnc12,7.31 µM
5,COc1cc(NS(=O)(=O)c2ccc(C)cc2)c2ncccc2c1,6.38 µM
6,O=C(c1ccccc1)c1coc2c1C(=O)c1ccccc1C2=O,1.49 µM
7,CCc1cc(SC#N)cc(C)c1NC(=O)CCl,7.66 µM
8,CCCCCCCc1ccc(-c2ccc(O)cc2)nc1,4.88 µM
9,O=C(NCc1ccncc1)c1ccccc1Nc1ccc(SC(F)F)cc1,21.5 µM
10,O=C(NCC1CC1(Cl)Cl)Nc1ccc(Cl)c(Cl)c1 (centres undefined),5.48 µM
11,CCCCCCC(Cl)(Cn1ccnc1)c1ccccc1 (centres undefined),3.48 µM
12,CCC(=O)NC(c1ccco1)c1cc(Cl)c2cccnc2c1O (centres undefined),0.185 µM
13,C=CCOC(Cn1ccnc1)c1ccc(Cl)cc1Cl (centres undefined),7.38 µM
14,O=C(COc1ccccc1F)Nc1nc(-c2ccccn2)cs1,12 µM
15,CCCCOC(=O)/C=C/c1ccc(OC(=O)OC)c(OC(=O)OC)c1,11 µM
16,COc1ccc(O)c(C(=O)CC(=O)c2ccc(F)cc2)c1,16.1 µM
17,CC[n+]1c(/C=C/C=C/c2ccc(N(C)C)cc2)sc2ccccc21,2.68 µM
18,CCCCCOc1ccc(CSc2n[nH]c(C)n2)cc1,8.7 µM
19,CN(C)c1ccc(C=c2c3cc(O)ccc3n3c2cc(-c2ccccc2)[n+]3C)cc1,0.247 µM
20,CCCCCCCCCCOC(=O)Cn1c(COc2ccccc2OC)[n+](C)c2ccccc21,0.346 µM

row,Structure (SMILES),AC35
1,Cc1[nH]n(-c2ccccc2)c(=O)c1/C=N/Nc1nncc(-c2ccccc2)n1,1.97 µM
2,Cc1ccc(O)c(-c2cc(-c3ccccc3C)[nH]n2)c1,6.3 µM
3,CCOC(=O)c1cc2c(=Cc3ccc(N(C)C)cc3)c3ccccc3n2[n+]1C,2.44 µM
4,Cc1ccoc1C(=O)Nc1cccc(Oc2ccccc2)c1,6.15 µM
5,CC(/C=N/n1c(COc2ccccc2)n[nH]c1=S)=C\c1ccccc1,42.2 µM
6,C=CCc1ccc(O)c(-c2ccc(O)c(CC=C)c2)c1,14.7 µM
7,Clc1ccc(C(Cn2ccnc2)OCc2c(Cl)cccc2Cl)c(Cl)c1 (centres undefined),2.36 µM
8,O=C(c1ccccc1)N1C(=O)C(c2ccccc2)Oc2ccccc21 (centres undefined),37.1 µM
9,Cc1ccc(NS(=O)(=O)c2ccc(N3CCN(c4ccc(O)cc4)CC3)c([N+](=O)[O-])c2)c(C)c1,10.4 µM
10,CC(=O)NC(c1ccc(C)cc1)c1cc([N+](=O)[O-])c2cccnc2c1O (centres undefined),11.2 µM
11,[O-][n+]1cccc2c(Br)cc(Br)c(O)c21,2.77 µM
12,CCCCCCSc1ccc(-c2nc3ccccn3c2NCCCC)cc1,6.94 µM
13,COc1ccc(N(C)S(=O)(=O)c2ccc(Cl)c(C(=O)NNC(=O)c3ccccc3O)c2)cc1,35.8 µM
14,Cc1cccc2sc(NNC(=O)c3ccc(S(=O)(=O)N4CCCC(C)C4)cc3)nc12 (centres undefined),4.44 µM
15,CCN(CC)C(=O)CSc1ncnc2sc(-c3ccccc3)cc12,36.6 µM
16,CCCCCCCn1c(=O)c(C(=O)OC)c(N)c2ccccc21,4.22 µM
17,Cc1nn(CCC#N)c(N)c1C1(O)C(=O)Nc2c(Cl)cc(Cl)cc21 (centres undefined),7.41 µM
18,CC(=O)C1=C(c2cccc([N+](=O)[O-])c2)N(C(C)=O)n2c(C)nnc2S1,0.59 µM
19,O=C1c2cccc(Cl)c2C(=O)c2c1cccc2N1CCCC1,20.9 µM
20,Cc1ccccc1Oc1nc(-c2ccccn2)nc2ccccc12,4.4 µM

row,Structure (SMILES),AC35
1,O=c1c2ccccc2c(-c2ccc(O)cc2)nn1-c1cccc(C(F)(F)F)c1,3.52 µM
2,COc1cnc(-c2ccccn2)nc1Sc1ccccc1,9.03 µM
3,CC(=O)NC(c1cccc([N+](=O)[O-])c1)c1ccc2cccnc2c1O (centres undefined),1.77 µM
4,COc1cnc(-c2ccccn2)nc1N(C)c1ccccc1,3.46 µM
5,Fc1ccc(CCNC(=S)Nc2ccc(F)c(Cl)c2)cc1,14.1 µM
6,Cc1ccc2c(C)c3ccc4ccccc4c3c[n+]2c1,0.0701 µM
7,CCc1ccc(CN(C)C(=O)c2cc(COc3cccc(C(F)(F)F)c3)on2)nc1,29.1 µM
8,Cc1ccc(-n2nnnc2SCC(=O)N2CCc3ccccc3C2)c(C)c1,28.7 µM
9,CCCn1nc(C(=O)N2CCN(S(=O)(=O)c3ccc(C)c(C)c3)CC2)c2ccccc2c1=O,8.13 µM
10,O=C(O)CSc1nc(-c2ccc(Cl)cc2)nc2c1oc1ccccc12,28.6 µM
11,O=S(=O)(c1ccc(Cl)cc1)N1CCC2(CC1)OCCN2S(=O)(=O)c1cccs1,20 µM
12,Clc1ccc(COC(Cn2ccnc2)c2ccc(Cl)cc2Cl)c(Cl)c1 (centres undefined),1.57 µM and 1.95 µM
13,Oc1cccc2ccc(Nc3ccccn3)nc12,0.321 µM
14,Nc1cc2c3ccccc3ccc2c2ccccc12,0.249 µM
15,Clc1nc(-c2ccccn2)nc2scc(-c3ccccc3)c12,2.39 µM
16,COC(=O)COC(=O)c1ccccc1NC(=O)c1ccccc1,25.8 µM
17,O=S(=O)(Nc1ccccc1)c1ccc(Oc2ncc(C(F)(F)F)cc2Cl)cc1,25.1 µM
18,Cc1cccc(NC(=S)NC(C)CCc2ccccc2)c1 (centres undefined),12.7 µM
19,CCOC(=O)N1C(=O)C2(CCCCC2)N(c2ccccc2Cl)C1=S,30.5 µM
